Test results as given in publication PMC11061835, “Elucidating the Mechanism of Metabolism of Cannabichromene by Human Cytochrome P450s” (Journal of Natural Products, 2024).
Several values for one entry are separate records, joined by “and”; a condition that tells them apart may be missing. Identical values can stand only once.

How the values were obtained:
[1] = tested on: BV2 microglial cells, stimulated with lipopolysaccharide (LPS); test: TNFα ELISA in LPS-stimulated BV2 cells; format: cell-based, mouse; conditions: 0.1, 1.0, 2.5, 5.0 μM
Method: BV2 cells were a gift from Dr. Bob McCusker, University of Illinois. They were cultured and maintained at 37 °C in a humidified atmosphere of 95% air and 5% CO2 in high-glucose Dulbecco’s modified Eagle’s (DMEM) medium (Cat No. 10-013-CV, Corning Life Sciences), supplemented with 5% heat-inactivated fetal bovine serum (FBS), streptomycin (100 μg/mL), and penicillin (100 units/mL). Stocks of all the minor cannabinoids were made in ethanol and stored at −80 °C and diluted as required before cell treatment. A final concentration of ethanol was maintained at 0.1% in the cell culture experiments.
BV-2 cells were plated at a density of 50 000 cells/well in a 24-well plate at 37 °C under controlled conditions. Cells were pretreated with the minor cannabinoids at various concentrations (0.1, 1.0, 2.5, 5.0 μM) for 4 h and then stimulated with LPS for 24 h. The culture medium was removed and saved for the determination of nitric oxide production through Cayman’s Griess assay. IL-6, TNFα, and Arginase 1 production was also determined utilizing collected medium. For the Greiss assay, in a 96-well plate, 100 μL of culture medium was used, and 50 μL of both Greiss reagent-1 and Greiss reagent-2 was added and incubated for 10 min. The absorbance was measured at 540 nm using a plate reader (SpectraMax iD5). The quantification was done using a calibration curve that was generated using the sodium nitrite standard obtained from Cayman Chemicals.
BV-2 cells were pretreated with the minor cannabinoids as described previously for 4 h in serum media (reduced to 5% FBS). Cells were stimulated with LPS (25 ng/mL in growth media) and allowed to incubate for 24 h. The culture medium was collected, and the concentrations of IL-6 (Cayman Chemicals), TNFα (ThermoFisher Scientific), and arginase 1 (ThermoFisher Scientific) cytokine expression were determined using specific monoclonal antibodies by ELISA kits as per manufacturer’s instructions.

CYP2C9 = test: CBC metabolism by CYP2C9; format: in vitro ADME, human
Method: (§1) To study the kinetics of CBC metabolism, concentration dependent metabolism of CBC was carried out in the presence of various CYPs using the following procedure. CYP2J2, CYP2C8, CYP2D6, CYP2C9, and CYP3A4 (final concentration 0.5 μM) were initially dissolved in lipid containing POPC:POPS (8:2 v/v) followed by addition of CPR (final concentration 0.6 μM) in 0.1 M potassium phosphate buffer (pH 7.4). CBC (5–80 μM) was added and incubated at 37 °C for 10 min. The reaction was triggered by NADPH and extracted using the exact sample protocol as mentioned in the HLM section.
(§2) Samples were analyzed with the 5500 QTRAP LC/MS/MS system (Sciex, Framingham, MA) in the Metabolomics Lab of Roy J. Carver Biotechnology Center, University of Illinois at Urbana–Champaign. Software Analyst 1.7.1 was used for data acquisition and analysis. The 1200 series HPLC system (Agilent Technologies, Santa Clara, CA) includes a degasser, an autosampler, and a binary pump. […] Multiple reaction monitoring (MRM) was used for quantitation: CBC m/z 315.1 → m/z 135.0; 1-acetoxy-6′,7′-dihydroxy-CBC (JM-I-73) m/z 349.1→ m/z 193.0; 1″-hydroxy-CBC (JM-I-66) m/z 331.1→ m/z 275.1; 6′,7′-epoxy-CBC (JM-I-27) m/z 331.1→ m/z 193.0; 7′,10′-ene-6′-hydroxy-CBC (JM-I-30) m/z 331.1→ m/z 193.0; 8′-hydroxy-CBC (JM-I-32) […]→ m/z 77.0. Internal standard EET-EA-d11 was monitored at m/z 375.2→ m/z 357.1.

CYP2D6 = CYP2D6 (Homo sapiens, UniProt P10635); test: CBC metabolism by CYP2D6; format: in vitro ADME; parameters: His-tag; made in house; host or cells: E. coli DH-5α with pTGro7 plasmid (CYP)
Method: as §1, §2

CYP2C9 with CPR = target: T1, CYP2C9 with CPR (Homo sapiens, UniProt P11712); test: NADPH activity assay, CYP2C9 with CPR; format: biochemical; conditions: CYP2C9, CBC 50 μM vs substrate-free
T1 construct: His-tag; made in house; host or cells: E. coli DH-5α with pTGro7 plasmid (CYP)
Method: CYP-mediated NADPH oxidation was measured using kinetics mode in a Cary 300 UV–vis spectrometer (Agilent Technologies). 0.2 μM (final concentration) of CYP was taken in 0.1 M potassium phosphate buffer (pH 7.4) and incubated with 0.6 μM (final concentration) of CPR for 5 min with a reaction volume of 400 μL. The reaction was initiated with 200 μM of NADPH, and the absorption change was monitored over 10 min at 340 nm. The rate of NADPH consumption (or NADPH to NADP^+ conversion) was calculated by taking the molar extinction coefficient as 6.22 mM^–1 cm^–1 at 340 nm. To estimate the change in NADPH oxidation in the presence of CBC, both CYP and CPR were further incubated using CBC (final concentration 50 μM) for 5 min followed by measuring the change in absorbance at 340 nm as discussed earlier.

[2] = target: T2, CYP3A4 in the presence of CPR (Homo sapiens, UniProt P08684); test: Spectroscopic titration, CYP3A4–CPR complex; format: binding
T2 construct: His-tag; made in house; host or cells: E. coli DH-5α with pTGro7 plasmid (CYP)
Method: For CBC titration to CYP–CPR complex, initially CYPs were dissolved in 400 μL of 0.1 M phosphate buffer (pH = 7.4) keeping the concentration between […]. Following this 50 μL of CPR (50 μM stock) was added to both cuvettes, and the final concentration of both of the proteins was 5–6 μM. Both proteins were initially mixed and incubated for 5 min followed by titration with CBC in the same process as mentioned above. The substrate-bound spectra were then subtracted from substrate-free spectra, and the extent of binding was analyzed using Origin Pro 2020.

T2 sequence (P08684 whole entry): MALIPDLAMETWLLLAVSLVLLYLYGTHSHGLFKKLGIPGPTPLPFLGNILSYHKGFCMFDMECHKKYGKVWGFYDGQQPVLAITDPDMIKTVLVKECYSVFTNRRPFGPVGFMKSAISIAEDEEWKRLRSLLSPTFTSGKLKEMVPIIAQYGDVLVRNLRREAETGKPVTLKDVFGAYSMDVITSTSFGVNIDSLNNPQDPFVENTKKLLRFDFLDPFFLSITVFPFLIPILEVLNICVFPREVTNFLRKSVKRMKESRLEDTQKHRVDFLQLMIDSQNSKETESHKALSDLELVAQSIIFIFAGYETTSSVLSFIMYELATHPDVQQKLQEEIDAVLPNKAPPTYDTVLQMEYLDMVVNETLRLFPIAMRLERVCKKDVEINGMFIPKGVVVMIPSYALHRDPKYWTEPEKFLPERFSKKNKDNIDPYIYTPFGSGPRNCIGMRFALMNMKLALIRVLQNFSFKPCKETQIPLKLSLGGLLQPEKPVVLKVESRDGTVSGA
T2 sequence (P16435 whole entry partner): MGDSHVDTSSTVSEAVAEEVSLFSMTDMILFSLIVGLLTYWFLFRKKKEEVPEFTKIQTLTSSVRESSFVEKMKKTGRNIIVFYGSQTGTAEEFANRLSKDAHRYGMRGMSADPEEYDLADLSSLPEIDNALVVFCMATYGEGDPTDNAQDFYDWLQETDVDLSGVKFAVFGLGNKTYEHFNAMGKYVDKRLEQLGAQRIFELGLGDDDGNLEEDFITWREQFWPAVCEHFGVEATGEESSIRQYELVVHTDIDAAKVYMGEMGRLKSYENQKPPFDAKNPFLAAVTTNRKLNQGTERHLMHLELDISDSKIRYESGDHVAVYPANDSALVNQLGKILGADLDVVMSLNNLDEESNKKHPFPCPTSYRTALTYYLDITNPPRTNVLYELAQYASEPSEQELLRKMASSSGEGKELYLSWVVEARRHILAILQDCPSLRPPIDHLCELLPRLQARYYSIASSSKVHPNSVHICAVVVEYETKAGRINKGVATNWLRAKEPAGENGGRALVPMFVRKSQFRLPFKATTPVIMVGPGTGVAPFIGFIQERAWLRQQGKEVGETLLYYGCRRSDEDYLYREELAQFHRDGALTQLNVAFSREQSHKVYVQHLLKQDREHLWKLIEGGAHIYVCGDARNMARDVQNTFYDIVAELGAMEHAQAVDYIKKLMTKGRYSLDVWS
CYP2D6, sequence (P10635 whole entry): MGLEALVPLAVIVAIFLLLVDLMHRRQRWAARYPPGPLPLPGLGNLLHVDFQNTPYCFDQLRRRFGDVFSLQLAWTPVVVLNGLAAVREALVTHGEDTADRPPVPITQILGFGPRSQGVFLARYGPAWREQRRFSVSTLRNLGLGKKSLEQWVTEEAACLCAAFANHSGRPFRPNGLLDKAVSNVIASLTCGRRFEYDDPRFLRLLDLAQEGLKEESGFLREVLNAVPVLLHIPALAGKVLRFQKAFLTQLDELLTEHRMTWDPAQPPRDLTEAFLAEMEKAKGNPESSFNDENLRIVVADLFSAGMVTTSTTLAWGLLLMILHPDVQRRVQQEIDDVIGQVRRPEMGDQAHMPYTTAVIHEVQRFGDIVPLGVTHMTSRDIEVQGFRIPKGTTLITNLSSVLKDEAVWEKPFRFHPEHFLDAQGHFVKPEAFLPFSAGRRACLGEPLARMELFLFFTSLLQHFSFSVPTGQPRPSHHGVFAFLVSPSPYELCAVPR
CYP2D6, sequence (P16435 whole entry partner): as the sequence (P16435 whole entry partner) above
T1 sequence (P11712 whole entry): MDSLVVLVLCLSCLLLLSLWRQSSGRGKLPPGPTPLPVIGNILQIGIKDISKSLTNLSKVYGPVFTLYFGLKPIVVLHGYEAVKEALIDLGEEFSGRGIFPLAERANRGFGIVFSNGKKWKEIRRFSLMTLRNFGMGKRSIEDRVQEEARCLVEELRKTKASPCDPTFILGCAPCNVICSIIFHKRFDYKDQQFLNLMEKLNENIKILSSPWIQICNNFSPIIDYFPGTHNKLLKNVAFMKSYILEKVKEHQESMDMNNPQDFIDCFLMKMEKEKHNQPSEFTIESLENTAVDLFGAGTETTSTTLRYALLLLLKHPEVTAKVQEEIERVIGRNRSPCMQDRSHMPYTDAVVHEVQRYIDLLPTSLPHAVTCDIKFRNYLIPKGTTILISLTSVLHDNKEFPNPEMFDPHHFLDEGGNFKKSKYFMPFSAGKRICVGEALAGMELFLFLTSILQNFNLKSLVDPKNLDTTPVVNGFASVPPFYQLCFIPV
T1 sequence (P16435 whole entry partner): as the sequence (P16435 whole entry partner) above

SMILES: CCCCCc1cc(O)c2c(c1)OC(C)(CC/C=C(\C)CO)C=C2 (stereo not drawn) [8′-hydroxy-CBC]
- effect on TNFα production [1]: increase
- extent of 8′-hydroxy-CBC formation relative to 6′,7′-epoxy-CBC (CYP2C9): approximately half
- preference for 8′-hydroxy-CBC formation compared to 6′,7′-epoxy-CBC (CYP2D6): 3–4 times

SMILES: CCCCCc1cc(O)c2c(c1)OC(C)(CCC=C(C)C)C=C2 (stereo not drawn) [CBC, Cannabichromene]
- percentage increase of NADPH consumption in the presence of CBC (CYP2C9 with CPR): ~90%
- ΔAmax (spin state change due to heme perturbation) [2]: 0.03 ± 0.00 and 0.03–0.04
- Kd ([2]; read-out: Kd(app)): 1660 nM and ~1600 nM and < 10000 nM
